According to PubChem BioAssay AID1918956 (Molecular Pharmacology Branch, DTP, NCI, 2023):

Test system: OVCAR-5 complex spheroids, viability
Experiment: Anticancer human tumor OVCAR-5 cell line growth inhibition;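 further: spheroids exposed to agents for seven days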;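 on viability, T/C: 100% = DMSO vehicle control wells viability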
Conditions: for IC50: curve of first compound; for viability, T/C: stronger effect = lower value
Outline: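 Drug combinations with the LSD1 inhibitor iadademstat tested on tumor cells co-cultured as spheroids with endothelial cells and mesenchymal stem cells. Concentrations descended in half-log increments from clinical Cmax or 10 microM.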

## CC1COCCN1c1cc(C2(S(C)(=N)=O)CC2)nc(-c2ccnc3[nH]ccc23)n1 (stereo not given) + NC1CC1c1ccc(-c2cccc(O)c2)cc1
Second compound 0.1 µM
  IC50: 858 nM
Second compound 0.316 µM
  IC50: 862 nM
Second compound 1 µM
  IC50: 792 nM
Second compound 3.16 µM
  IC50: 663 nM
Second compound 10 µM
  IC50: 697 nM
Second compound 0.1 µM, first compound 0.0316 µM
  viability, T/C: 80.6%
Second compound 0.1 µM, first compound 0.1 µM
  viability, T/C: 78.3%
Second compound 0.1 µM, first compound 0.316 µM
  viability, T/C: 72.8%
Second compound 0.1 µM, first compound 1 µM
  viability, T/C: 45.9%
Second compound 0.1 µM, first compound 3.16 µM
  viability, T/C: 32%
Second compound 0.1 µM, first compound 10 µM
  viability, T/C: 26.7%
Second compound 0.316 µM, first compound 0.0316 µM
  viability, T/C: 89.2%
Second compound 0.316 µM, first compound 0.1 µM
  viability, T/C: 95.6%
Second compound 0.316 µM, first compound 0.316 µM
  viability, T/C: 80.6%
Second compound 0.316 µM, first compound 1 µM
  viability, T/C: 44.9%
Second compound 0.316 µM, first compound 3.16 µM
  viability, T/C: 33%
Second compound 0.316 µM, first compound 10 µM
  viability, T/C: 25.6%
Second compound 1 µM, first compound 0.0316 µM
  viability, T/C: 71.4%
Second compound 1 µM, first compound 0.1 µM
  viability, T/C: 75.4%
Second compound 1 µM, first compound 0.316 µM
  viability, T/C: 74.2%
Second compound 1 µM, first compound 1 µM
  viability, T/C: 44%
Second compound 1 µM, first compound 3.16 µM
  viability, T/C: 29.9%
Second compound 1 µM, first compound 10 µM
  viability, T/C: 25%
Second compound 3.16 µM, first compound 0.0316 µM
  viability, T/C: 88.8%
Second compound 3.16 µM, first compound 0.1 µM
  viability, T/C: 77.6%
Second compound 3.16 µM, first compound 0.316 µM
  viability, T/C: 62.1%
Second compound 3.16 µM, first compound 1 µM
  viability, T/C: 42.9%
Second compound 3.16 µM, first compound 3.16 µM
  viability, T/C: 32%
Second compound 3.16 µM, first compound 10 µM
  viability, T/C: 24.8%
Second compound 10 µM, first compound 0.0316 µM
  viability, T/C: 76.9%
Second compound 10 µM, first compound 0.1 µM
  viability, T/C: 78.6%
Second compound 10 µM, first compound 0.316 µM
  viability, T/C: 65.7%
Second compound 10 µM, first compound 1 µM
  viability, T/C: 42.3%
Second compound 10 µM, first compound 3.16 µM
  viability, T/C: 32.3%
Second compound 10 µM, first compound 10 µM
  viability, T/C: 27%

## CCN(c1cc(-c2ccc(CN3CCOCC3)cc2)cc(C(=O)NCc2c(C)cc(C)[nH]c2=O)c1C)C1CCOCC1 + NC1CC1c1ccc(-c2cccc(O)c2)cc1
Second compound 0.1 µM
  IC50: > 3000 nM
Second compound 0.316 µM
  IC50: > 3000 nM
Second compound 1 µM
  IC50: > 3000 nM
Second compound 3.16 µM
  IC50: > 3000 nM
Second compound 10 µM
  IC50: > 3000 nM
Second compound 0.1 µM, first compound 0.00949 µM
  viability, T/C: 87.6%
Second compound 0.1 µM, first compound 0.03 µM
  viability, T/C: 98.8%
Second compound 0.1 µM, first compound 0.0949 µM
  viability, T/C: 106%
Second compound 0.1 µM, first compound 0.3 µM
  viability, T/C: 97%
Second compound 0.1 µM, first compound 0.949 µM
  viability, T/C: 107%
Second compound 0.1 µM, first compound 3 µM
  viability, T/C: 92.6%
Second compound 0.316 µM, first compound 0.00949 µM
  viability, T/C: 102%
Second compound 0.316 µM, first compound 0.03 µM
  viability, T/C: 108%
Second compound 0.316 µM, first compound 0.0949 µM
  viability, T/C: 99.3%
Second compound 0.316 µM, first compound 0.3 µM
  viability, T/C: 94.8%
Second compound 0.316 µM, first compound 0.949 µM
  viability, T/C: 104%
Second compound 0.316 µM, first compound 3 µM
  viability, T/C: 102%
Second compound 1 µM, first compound 0.00949 µM
  viability, T/C: 91.5%
Second compound 1 µM, first compound 0.03 µM
  viability, T/C: 84.4%
Second compound 1 µM, first compound 0.0949 µM
  viability, T/C: 94.3%
Second compound 1 µM, first compound 0.3 µM
  viability, T/C: 103%
Second compound 1 µM, first compound 0.949 µM
  viability, T/C: 91.9%
Second compound 1 µM, first compound 3 µM
  viability, T/C: 98.5%
Second compound 3.16 µM, first compound 0.00949 µM
  viability, T/C: 88.8%
Second compound 3.16 µM, first compound 0.03 µM
  viability, T/C: 87.7%
Second compound 3.16 µM, first compound 0.0949 µM
  viability, T/C: 90.4%
Second compound 3.16 µM, first compound 0.3 µM
  viability, T/C: 90.9%
Second compound 3.16 µM, first compound 0.949 µM
  viability, T/C: 90.6%
Second compound 3.16 µM, first compound 3 µM
  viability, T/C: 92.9%
Second compound 10 µM, first compound 0.00949 µM
  viability, T/C: 86.7%
Second compound 10 µM, first compound 0.03 µM
  viability, T/C: 91.9%
Second compound 10 µM, first compound 0.0949 µM
  viability, T/C: 85.5%
Second compound 10 µM, first compound 0.3 µM
  viability, T/C: 93.4%
Second compound 10 µM, first compound 0.949 µM
  viability, T/C: 95.5%
Second compound 10 µM, first compound 3 µM
  viability, T/C: 91.1%
